One compound from patent publication US20080051454A1, “Compositions and methods for transient receptor potential vanilloid (TRPV) channel mediated treatments” (The Board of Trustees Operating Michigan State University, priority 2006, published 2008) can be followed below.

The subject of test [1] is Wistar rats fed a NS or HS diet for 10 days. The test is described as follows: MAP responses to i.v. capsaicin with or without CAPZ in urethane-anesthetized rats. It is filed as in vivo, rat. Here is the method:
Surgical Preparation Rats were anesthetized with ketamine and xylazine (80 and 4 mg/kg intraperitoneally, respectively) for cannulation or with urethane (1.5 g/kg intraperitoneally) for capsaicin administration. The left jugular vein, carotid and femoral artery were cannulated under anesthesia for injection of drugs or monitoring of mean arterial pressure (MAP) and heart rate (HR).
Each dose of injection was separated by a 30-minute interval. To determine the specificity of capsaicin, CAPZ (3 mg/kg) was administered 10 minutes before capsaicin injection in a separate group.

A further test concerns male Wistar rats. Briefly: Depressor effect of 20-HETE analog DSR given IV, with or without antagonists. It is filed as in vivo, rat. To be noted: DSR 1 mg/kg with CAPZ 3 mg/kg, RP67580 4 mg/kg or CGRP 8-37 3 mg/kg.
The next test has as its system WT and TRPV1−/− hearts. Briefly: OLDA-induced CGRP and SP release from hearts (radioimmunoassay). More on the design: species or system mouse.
The next test concerns hearts of WT mice. Briefly: Langendorff perfused heart, ischemia and reperfusion (I/R) with OLDA, wild type. More on the design: species or system mouse. To be noted: antagonist 1×10^−6 M. Here is the method: The following measurements were made on the two types of heart tissue: left ventricular end-diastolic pressure (LVEDP), left ventricular developed pressure (LVDP), coronary flow (CF), and left ventricular (LV) peak positive rate of pressure change/rate of time change (+dP/dt) were evaluated after I/R.

Test [2] relates to Wistar rats fed a NS or HS diet for 3 weeks. The test is described as follows: MAP and HR responses to bolus CAPZ in conscious rats (3-week diet). It is filed as in vivo, rat. To be noted: for peak increase in MAP: CAPZ 3 mg/kg bolus, conscious. The text has this: Animal Preparation: Experiments were approved by the institutional Animals Care and Use Committee. Male Wistar rats (6 weeks old, Charles River Laboratory, Wilmington, Mass.) were housed in a temperature-controlled room with a 12:12-hour light/dark cycle. Rats were selected randomly to receive either a normal-sodium diet (NS, 0.4% of Na^+ by weight) or a HS diet (HS, 4% of Na^+ by weight) for 3 weeks. The diets were purchased from Harlan Teklad. All rats drank water ad libitum throughout the experiment.
Surgical Preparation The rats were anesthetized with ketamine and xylazine (80 and 4 mg/kg ip, respectively) for implantation of artery and vein catheters. The left jugular vein and carotid artery were cannulated for administration of drugs or for monitoring of mean arterial pressure (MAP) and heart rate (HR) with a Statham 231D pressure transducer coupled to a Gould 2400s recorder (Gould Instruments, Dayton, Ohio, USA). For conscious animal experiments, catheters were routed subcutaneously and exteriorized between the scapulae. Rats were quietly brought to home cages 3 hours after surgery, and MAP and HR were continuously recorded. Regular room light was turned on during experiments. The rats were allowed to acclimate to their surroundings for 15-30 minutes in their cages, i.e., until which time they ceased exploring the new environment and their blood pressures stabilized. Baseline MAP and HR were recorded for 15 minutes before administration of drugs (Supowit et al., 1997; Wang and Wang, 2004).
Protocol 1: To determine whether the TRPV1 is tonically activated during HS intake, rats fed a NS or HS diet were randomly assigned to 2 groups for intravenous injection of CAPZ (3 mg/kg), a selective TRPV1 antagonist, in conscious states.

With `Oc1cc2c(cc1O)CN(C(=S)NCCc1ccc(Cl)cc1)CCC2` [CAPZ, N-[2-(4-Chlorophenyl)ethyl]-1,3,4,5-tetrahydro-7,8-dihydroxy-2H-2-benzazepine-2-carbothioamide], the “capsaicin-induced decrease in MAP after CAPZ” value is 4±1 mmHg in test [1] (CAPZ 3 mg/kg before capsaicin 10 μg/kg, HS); 4±1 mmHg in test [1] (CAPZ 3 mg/kg before capsaicin 10 μg/kg, NS); 6±2 mmHg in test [1] (CAPZ 3 mg/kg before capsaicin 30 μg/kg, HS); 5±1 mmHg in test [1] (CAPZ 3 mg/kg before capsaicin 30 μg/kg, NS). In the test on male Wistar rats, the “DSR induced-depressor effect after antagonist” value worked out at 8.5±2.5 mmHg. In addition, the “effect on OLDA-increased CGRP and SP release in WT hearts” value in the test on WT and TRPV1−/− hearts is given as “blocked”. The “effect on protective effect of OLDA in WT hearts” value in the test with hearts of WT mice is “abolished”. In addition, the “peak increase in MAP” value worked out at 13±3 mmHg in test [2] (HS 3 weeks) and 4±2 mmHg in test [2] (NS 3 weeks). The “duration of pressor action” value in test [2] (CAPZ 3 mg/kg, HS) lay in the range of 6 to 7 min. In test [2] (CAPZ 3 mg/kg, HS), the “time to peak MAP elevation after injection” value was at most 2 min. In addition, the “change in HR” value in test [2] (CAPZ 3 mg/kg, NS or HS) is recorded as “no significant change”.
